Measurements reported in paper PMC7732531 (Frontiers in Pharmacology, 2020).

Assay: Pharmacokinetics in rats with ABT pretreatment (intestinal and hepatic availability)
Details: for AUC(0-inf) / MRT last: p.o. YL-IPA08 (1 mg/kg); for MRT last: MRT(0–t)
[1] = rat, plasma, po, 1 mg/kg, rats, i.v. ABT
[2] = rat, plasma, po, 1 mg/kg, rats, p.o. ABT
[3] = rat, plasma, po, 1 mg/kg, with ABT 50 mg/kg i.v., 1 h before dosing
[4] = rat, plasma, po, 1 mg/kg, with ABT 100 mg/kg p.o., 15 h before dosing

`CCN(Cc1ccccn1)C(=O)Cc1c(-c2ccc(Cl)c(Cl)c2)nc2cc(C)ccn12` [YL-IPA08] gave a concentration at 12 h (rat, plasma, oral, 1 mg/kg, Plasma concentration, rats, i.v. 50 mg/kg ABT, p.o. 1mg/kg YL-IPA08, 12 h) of 3.98 ± 4.24 ng/mL, a concentration at 24 h (rat, plasma, oral, 1 mg/kg, Plasma concentration, rats, i.v. 50 mg/kg ABT, p.o. 1mg/kg YL-IPA08, 24 h) of 1.28 ± 0.53 ng/mL and a concentration at 0.083 h (rat, plasma, oral, 1 mg/kg, Plasma concentration, rats, p.o. 100 mg/kg ABT, p.o. 1 mg/kg YL-IPA08, 0.083 h) of 546 ± 637 ng/mL. For the same compound, the concentration at 8 h (rat, plasma, oral, 1 mg/kg, Plasma concentration, rats, p.o. 100 mg/kg ABT, p.o. 1 mg/kg YL-IPA08, 8 h) was 34.2 ± 19.6 ng/mL, the concentration at 12 h (rat, plasma, oral, 1 mg/kg, Plasma concentration, rats, p.o. 100 mg/kg ABT, p.o. 1 mg/kg YL-IPA08, 12 h) was 17.4 ± 8.5 ng/mL and the concentration at 24 h (rat, plasma, oral, 1 mg/kg, Plasma concentration, rats, p.o. 100 mg/kg ABT, p.o. 1 mg/kg YL-IPA08, 24 h) was 1.39 ± 0.98 ng/mL. It also gave a bioavailability (rat, plasma, oral, 1 mg/kg, with ABT 50 mg/kg i.v., 1 h before dosing) of 19.7%, a concentration at 0.25 h (rat, plasma, oral, Plasma concentration, rats, i.v. 50 mg/kg ABT, p.o. 1mg/kg YL-IPA08, 0.25 h) of 28.2 ± 25.2 ng/mL and a concentration at 0.5 h (rat, plasma, oral, Plasma concentration, rats, i.v. 50 mg/kg ABT, p.o. 1mg/kg YL-IPA08, 0.5 h) of 30.3 ± 35.4 ng/mL. For the same compound, the concentration at 1 h (rat, plasma, oral, Plasma concentration, rats, i.v. 50 mg/kg ABT, p.o. 1mg/kg YL-IPA08, 1 h) was 34.8 ± 50.4 ng/mL, the concentration at 2 h (rat, plasma, oral, Plasma concentration, rats, i.v. 50 mg/kg ABT, p.o. 1mg/kg YL-IPA08, 2 h) was 30.5 ± 42 ng/mL and the concentration at 4 h (rat, plasma, oral, Plasma concentration, rats, i.v. 50 mg/kg ABT, p.o. 1mg/kg YL-IPA08, 4 h) was 13.3 ± 17.1 ng/mL. For the same compound, the concentration at 6 h (rat, plasma, oral, Plasma concentration, rats, i.v. 50 mg/kg ABT, p.o. 1mg/kg YL-IPA08, 6 h) was 6.4 ± 4.73 ng/mL, the concentration at 0.25 h (rat, plasma, oral, Plasma concentration, rats, p.o. 100 mg/kg ABT, p.o. 1 mg/kg YL-IPA08, 0.25 h) was 403 ± 402 ng/mL and the concentration at 0.5 h (rat, plasma, oral, Plasma concentration, rats, p.o. 100 mg/kg ABT, p.o. 1 mg/kg YL-IPA08, 0.5 h) was 370 ± 354 ng/mL. The concentration at 1 h (rat, plasma, oral, Plasma concentration, rats, p.o. 100 mg/kg ABT, p.o. 1 mg/kg YL-IPA08, 1 h) was 334 ± 247 ng/mL, the concentration at 2 h (rat, plasma, oral, Plasma concentration, rats, p.o. 100 mg/kg ABT, p.o. 1 mg/kg YL-IPA08, 2 h) was 246 ± 150 ng/mL and the concentration at 4 h (rat, plasma, oral, Plasma concentration, rats, p.o. 100 mg/kg ABT, p.o. 1 mg/kg YL-IPA08, 4 h) was 125 ± 71.7 ng/mL. The concentration at 6 h (rat, plasma, oral, Plasma concentration, rats, p.o. 100 mg/kg ABT, p.o. 1 mg/kg YL-IPA08, 6 h) was 47.7 ± 28.6 ng/mL, the AUC(0-t) (rat, plasma, po, 1 mg/kg) was 185 ± 148 ng·h/mL and the AUC(0-inf) [1] was 188 ± 146 ng·h/mL. For the same compound, the AUC(0-inf) [2] was 876 ± 183 ng·h/mL, the MRT last [1] was 8.37 ± 3.67 h and the MRT last [2] was 5.51 ± 1.25 h. The Cmax [3] was 41.8 ± 42 ng/mL, the Tmax [3] was 0.87 ± 0.68 h and the AUC(0-t) [4] was 868 ± 185 ng·h/mL. The Cmax [4] was 176 ± 88.5 ng/mL, the Tmax [4] was 1.4 ± 1.32 h and the bioavailability [4] was 69.7%. For the same compound, the “E g (gut extraction)” value (rats, ABT i.v.) was 75%, the “E h (hepatic extraction)” value (rats, ABT i.v.) was 20% and the F g (rats, ABT i.v.) was 25%. For the same compound, the F h (rats, ABT i.v.) was 80%, the F p.o. (rats, ABT i.v.) was ~20% and the “E g (gut extraction)” value (rats, ABT p.o.) was 16%. The “E h (hepatic extraction)” value (rats, ABT p.o.) was 17%, the F g (rats, ABT p.o.) was 84% and the F h (rats, ABT p.o.) was 83%. For the same compound, the F p.o. (rats, ABT p.o.) was ~70%, the “reduction of systemic clearance” value (rats, ABT pretreatment through i.v. injection) was “about 75%” and the “reduction of systemic clearance” value (rats, ABT pretreatment through oral gavage) was ~80%. The “E g (gut extraction)” value (rats, No ABT) was 65%, the “E h (hepatic extraction)” value (rats, No ABT) was 83% and the F g (rats, No ABT) was 35%. For the same compound, the F h (rats, No ABT) was 17% and the F p.o. (rats, No ABT) was 6%.
